We go through one compound from US20260232644A1, “Compositions Comprising an Inhibitor of Galectin-3” (University of Liverpool, priority 2023, published 2026).

Series [1] concerns human umbilical vein endothelial cells (HUVECs). The experiment in a line: Vascular cell tubule formation (angiogenesis). The following applies: Galectin-3 2 μg/ml, compound 10 μM. It counts as cell-based. As for the experimental part: Matrigel matrix (50 μl) was added to 96-well plates for 60 min at 37° C. to allow gel formation. HUVEC cells (1×10^5 cells/ml in 1:1 EGM/EBM2 media) was introduced to the plates without or with galectin-3 (2 μg/ml) or different concentrations of compound inhibitors for 24 hr at 37° C. Endothelial cell tube formation was examined with Laser Microscope. The total number of branching points and the sum of the lengths of tubes were measured.

In series [2] the target is T1, Galectin-2 (Homo sapiens, UniProt P05162).
T1 construct: made in house; host or cells: E. coli
T1 sequence (P05162 1-132): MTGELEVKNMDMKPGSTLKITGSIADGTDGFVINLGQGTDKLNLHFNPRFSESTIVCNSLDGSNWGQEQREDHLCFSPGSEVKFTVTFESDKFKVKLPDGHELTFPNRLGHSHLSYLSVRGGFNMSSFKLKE
As to the kind of experiment: Galectin-2 binding to asialofetuin ELISA. The following applies: Gal-2 5 μg/ml, ASF 20 μg/ml. The procedure: (§1) Effect of the inhibitors on galectin binding to its ligand asialo fetuin (ASF) was measured by galectin ELISA. Nanty-six well plates were coated overnight with 20 μg/ml ASF in coating buffer (15 mM Na2CO3 17 mM NaHCO3 pH 9.6.). The wells were washed twice with PBS and incubated with blocking buffer (1% BSA in PBS) for 1 hr. The supernatants were removed and replaced with 5 μg/ml recombinant human galectin without or with different concentrations of the compound inhibitors or lactose in blocking buffer for 1 hr at room temperature. The wells were washed and incubated with 1 μg/ml anti-galectin antibody for 2 hr. Following addition of HRP-conjugated secondary antibody for 1 hr, FAST OPD development solution was added for 15-20 minutes. The reaction was terminated by addition of 4M sulphuric acid. The plates were read at 492 nm (reference wavelength 595 nm) by a microplate reader.

The target of series [3] is T2, Galectin-3 (Homo sapiens, UniProt P17931).
T2 construct: made in house; host or cells: E. coli
As to the kind of experiment: Galectin-3 binding to asialofetuin (ASF) ELISA. The procedure: as §1

Series [4] concerns human colon cancer SW620 cells. As to the kind of experiment: LDH release cytotoxicity assay, SW620. It counts as cell-based.
Protocol: (§3) SW620 cells (5×10^4 cells/ml) were seeded into 96-well plate in DMEM (and incubated at 37° C. 5% CO2 for 24 hr. HUVECs (1.0×10^5 cells/ml) was seeded in EBM medium and incubated for 24-36 hr until they formed a monolayer. Compound inhibitors at different concentrations were then introduced to the cells (10× lysis buffer was included as maximum LDH activity control) for 24 hr. The culture medium was transferred to a new plate and was mixed with equal volume of reaction mixture provided in the kit for 30 min at room temperature before the absorbance was measured at 490 nm (reference 680 nm) by a spectrophotometer.
Series [5] has as its target T3, full-length galectin-3 (Homo sapiens, UniProt P17931).
T3 construct: made in house; host or cells: E. coli
The experiment in a line: Tryptophan Fluorescence Spectroscopy (TFS) binding affinity, full-length Galectin-3. As for the experimental part: (§2) The binding affinity of the inhibitors to galectin-3 was determined by Intrinsic Tryptophan Fluorescence Spectroscopy (TFS) exactly as we described recently [Sindrewicz, P., et al., Intrinsic tryptophan fluorescence spectroscopy reliably determines galectin-ligand interactions. Sci Rep, 2019. 9(1): p. 11851]. The Galectin-3 concentration used was 10 μM and the inhibitor titration concentrations were from 0 to 224 μM. DMSO/control buffer (PBS with 2 mM EDTA) titrations were performed and used for background subtraction.

Series [6] addresses T4, C-terminal (aa 115-250) Galectin-3 (Homo sapiens, UniProt P17931).
T4 construct: made in house; host or cells: E. coli
As to the kind of experiment: Tryptophan Fluorescence Spectroscopy (TFS) binding affinity, C-terminal Galectin-3. As for the experimental part:
as §2

Series [7] has as its system yeast. The experiment in a line: Genotoxicity in yeast.
Series [8] concerns vascular HUVECs. The experiment in a line: LDH release cytotoxicity assay, HUVECs. It counts as cell-based, human.
Protocol: as §3
In series [9] the test system is THP-1 differentiated macrophages. As to the kind of experiment: Galectin-3-induced IL-1β secretion from macrophages (ELISA). The note with it: Galectin-3 10 μg/ml, various concentrations. It counts as cell-based. The procedure: Effect of the compound inhibitors on secretion of pro-inflammatory cytokines from macrophages were assessed in THP-1 monocyte differentiated macrophages. THP-1 cells were induced to differentiation into macrophages by incubation with 10 ng/ml PMA for 48 h at 37° C. The culture medium was then replaced with fresh medium without or with 10 μg/ml galectin-3 and various concentrations of the compound inhibitors for 24 h at 37° C. The culture medium was collected and the concentrations of TNFα and IL-1β in the culture medium were determined by TNFα and IL-1β ELISA.

Series [10] has as its system human lung cancer H1975 cells. The experiment in a line: Lung cancer cell adhesion to basement matrix. It counts as cell-based. As for the experimental part:
Nanty-six well plates were coated with 50 μl Matrigel (1:30 diluted in PBS) at 37° C. for 1 hour.
Cancer cells, pre-labelled with fluorescent die DiI at 37° C. for 20 minutes, were washed twice with PBS and resuspended into 3×10^4 cells/ml in serum-free medium. The matrix-coated 96-well plates were washed twice with PBS before introduction of 100μ cell suspension with different concentrations of the inhibitors or PBS/DMSO (control) for 1 hour at 37° C. The plates were washed twice with PBS before three randomly selected Field of Views (FOVs) were recorded by fluorescence microscope and number of adhesion cells were quantified by Image J.

In series [11] the test system is human melanoma ACA19 cells. The experiment in a line: Galectin-3-mediated ACA19 cell adhesion to HUVECs. It counts as cell-based. The note with it: Galectin-3 2 μg/ml, various concentrations. The procedure:
HUVEC cells at 1×10^5 cells/ml in EGM medium were seeded into 24 well plates pre-inserted with 13 mm glass coverslip. The cells were incubated at 37° C. at 5% CO2 for 24 hr for monolayer formation. AGA19+ or SW620 cell suspension (5×10^5 cells/ml in DMEM) was introduced with 5 μl/ml fluorescent cell labelling solution DiL for 30 min at 37° C. The fluorescent labelled cells were washed twice with PBS and resuspended into 1×10^5 cells/ml in DMEM. The cancer cell suspension was then introduced with galectin-3 (2 μg/ml) and various concentrations of the compound inhibitors at 37° C. for 1 hr. The wells were carefully washed twice with PBS to remove the non-adhesion cells before the cells in the wells were fixed with 2% paraformaldehyde for 10 min. The glass coverslip was carefully removed from the plate, placed on a glass slide. After addition of fluorescence mounting medium containing DAPI, fluorescence labelled cells were quantified under a fluorescence microscope.

For series [12], the target named is T5, Galectin-4 (Homo sapiens, UniProt P56470).
T5 construct: made in house; host or cells: E. coli
T5 sequence (P56470 1-323): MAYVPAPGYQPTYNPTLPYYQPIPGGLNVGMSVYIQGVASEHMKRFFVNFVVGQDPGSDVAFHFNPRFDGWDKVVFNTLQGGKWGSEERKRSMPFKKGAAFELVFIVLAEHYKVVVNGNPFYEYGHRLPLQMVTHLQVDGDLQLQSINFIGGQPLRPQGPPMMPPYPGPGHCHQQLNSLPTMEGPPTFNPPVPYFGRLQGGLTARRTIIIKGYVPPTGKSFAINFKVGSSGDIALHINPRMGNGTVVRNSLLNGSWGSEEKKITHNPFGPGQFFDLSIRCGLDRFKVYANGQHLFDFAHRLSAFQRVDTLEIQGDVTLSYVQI
As to the kind of experiment: Galectin-4 binding to asialofetuin ELISA. The note with it: Gal-4 5 μg/ml, ASF 20 μg/ml. The procedure: as §1

Structures can show the parent of a compound that is named as a salt.

T2 sequence (P17931 whole entry): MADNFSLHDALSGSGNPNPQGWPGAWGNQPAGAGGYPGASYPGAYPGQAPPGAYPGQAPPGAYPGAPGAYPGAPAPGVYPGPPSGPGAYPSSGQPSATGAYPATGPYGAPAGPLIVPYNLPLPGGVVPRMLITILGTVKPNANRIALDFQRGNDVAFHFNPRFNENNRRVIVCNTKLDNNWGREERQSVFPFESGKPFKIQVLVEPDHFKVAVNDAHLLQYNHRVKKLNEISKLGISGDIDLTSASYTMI
T3 sequence (P17931 whole entry): as above
T4 sequence (P17931 115-250): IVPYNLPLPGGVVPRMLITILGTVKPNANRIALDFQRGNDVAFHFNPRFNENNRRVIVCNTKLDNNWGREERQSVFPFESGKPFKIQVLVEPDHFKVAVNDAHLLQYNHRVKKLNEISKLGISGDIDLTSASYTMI

As to `NC1CCN(c2nc3c(cc2F)c(=O)c(C(=O)O)cn3-c2ccc(F)cc2F)C1` (centres unmarked) [Formula X, Tosufloxacin tosylate], the “Inhibition of galectin-3-induced tubule numbers” value in [1] is listed as “significant inhibition”. Besides, the “Inhibition of galectin-3-induced vascular tubule length” value in [1] was “significant inhibition”. Also, the “Effect on Galectin-2 binding to asialofetuin” value in series [2] is listed as “does not affect binding”. Further, the “Inhibition of Galectin-3 binding to its ligand asialofetuin (ASF)” value in series [3] (Galectin-3 5 μg/ml, ASF 20 μg/ml, different concentrations of compound, ELISA) is on record as “inhibit galectin-3 binding to ASF in a dose-dependent manner”. For the same compound, the IC50 is at most 10 µM in series [3] (read-out: IC50, inhibition of Galectin-3 binding to its ligand) and about 5 µM in series [10] (Homo sapiens, NCI-H1975). Moreover, the “Cytotoxicity to SW620 cells (LDH release)” value in [4] (at 100 μM) is “no detectable cytotoxicity”; in [4] (various concentrations), “low cytotoxicity”. The Kd in series [5] and in series [6] was 5 to 7 µM throughout. Besides, the Genotoxicity in yeast entry in series [7] was “no detectable genotoxicity”. In addition, the “Cytotoxicity to HUVEC cells (LDH release)” value in series [8] (at 100 μM) is on record as “no detectable cytotoxicity”; in series [8] (various concentrations), “low cytotoxicity”. The “Inhibition of galectin-3-induced IL-1β secretion” value in series [9] is listed as “dose-dependent inhibition”. Also, in series [10] (different concentrations), the “Inhibition of H1975 cell adhesion to matrix” value is reported as “dose-dependent inhibition”. In addition, the “Inhibition of ACA19 cell adhesion to HUVECs” value in series [11] was “dose-dependent inhibition”. Also, the “Effect on Galectin-4 binding to asialofetuin” value in series [12] was “does not affect binding”.
